Results taken from patent US20160222014A1, “COMPOUNDS FOR REGULATING FAK AND/OR SRC PATHWAYS” (ASANA BIOSCIENCES, LLC, priority 2013, published 2016).

Legend:
recombinant human FAK1 = target: T1, recombinant human FAK1 (Homo sapiens, UniProt Q05397); assay: FAK1 HTRF assay; assay type: biochemical
T1 construct: fused on or other part: N-terminal 6xHis tag
Outline: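 IC50 values derive from HTRF % inhibition (ratio 665/620 nm, Eu–anti-phosphotyrosine 0.1 nM, SA-APC 12 nM). The kinase step ran 45 min at room temperature, pairing 10 nM His-FAK1(692–end) from baculovirus with 0.5 μM gastrin Tyr87 biotin-peptide and a reagent at 10 μM final, pH 7.4. Compound dilutions began at 10 μM.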

JAK2 = JAK2 (Homo sapiens, UniProt O60674); assay: JAK2 biochemical potency; settings: read-out: JAK2 HTRF IC50
AURKB (Aurora B) enzyme = target: T2, AURKB (Aurora B) enzyme (Homo sapiens, UniProt Q96GD4); assay: Aurora B HTRF assay; assay type: biochemical; settings: read-out: AuroraB IC50
T2 construct: purchased Invitrogen PVR 130
Outline: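 Enzyme (5 nM final) and ULight-labelled PLK Ser137 peptide (50 nM) reacted 1 h at room temperature; a 30 μM final component was also present. Detection used EDTA-containing buffer with europium anti-phospho-PLK(Ser137) antibody at 2 nM, 1 h, then time-resolved FRET readout.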

Recombinant Src enzyme = target: T3, Recombinant Src enzyme (Homo sapiens, UniProt P12931); assay: Src HTRF assay; assay type: biochemical
T3 construct: purchased Millipore 14-326; host or cells: Sf21 insect cells
Outline: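 Run as for the FAK HTRF assay (same buffer, supplements, compound preparation and procedure), with dasatinib included. Reaction contained 0.5 μM biotin-tagged Tyk2 synthetic peptide, 5 nM Src made in Sf21 cells, and a pH7.4-buffer-prepared component at 10 μM final.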

[1] = target: T4, FAK phosphorylated at Y397 in HEK-FAK cell line overexpressing human FL FAK protein (Homo sapiens, UniProt Q05397); assay: Cell based assay, Phospho-FAK ELISA; settings: HEK stb; read-out: pFAK EC50 (μM) HEK stb
T4 construct: expressed in transfected cells
From the text: D. Cell Based Assay-Phospho-FAK ELISA
The DuoSet IC ELISA (R&D systems—Cat no. DYC4528-5) provided the basic components required for the development of sandwich ELISAs to measure Focal Adhesion Kinase 1 (FAK) phosphorylated at Y397 in cell lysates. An immobilized capture antibody specific for FAK, also known as PTK2, binds both phosphorylated and unphosphorylated protein. After washing away unbound material, a biotinylated detection antibody specific for FAK phosphorylated at Y397 was used to detect only phosphorylated protein, utilizing a standard Streptavidin-HRP format. The cell line used for the assay was a stable HEK-FAK cell line overexpressing human FL FAK protein, which was generated as follows.
HEK293 cells (ATCC® CRL-1573™, 10801 University Boulevard, Manassas, Va. 20110 USA) were seeded in four 100 mm petri dishes at a seeding density of 1.5×10^6 cells per plate and incubated overnight at 37° C. in a 5% CO2 incubator. The transfection mix was prepared as follows. (A) 10 μg DNA (pCDNA4 V5/HisA vector containing Zeocin as mammalian selection marker, procured from Invitrogen) with the full length human FAK gene represented by the nucleotide sequence provided in NCBI Reference Sequence: NM_153831.3, SEQ ID NO: 1:
was added to 1.5 mL Opti-MEM® (reduced serum media is a modification of Eagle's Minimum Essential Media, buffered with HEPES and sodium bicarbonate and supplemented with hypoxanthine, thymidine, sodium pyruvate, L-glutamine, trace elements and growth factors commercially available from Invitrogen) and incubated at room temperature for 5 minutes. (B) 30 μL Lipofectamine™ Transfection reagent (Life Technologies) was added to 1.5 mL Opti-MEM® and incubated at room temperature for 5 minutes. Following this, (a) and (b) were mixed and incubated at room temperature for 20 minutes. Media was removed from cells and washed with 1× phosphate buffered saline (PBS) and the transfection mix prepared above was mixed with 3 mL of Opti-MEM®, added to the cells and incubated at 37° C. Four hours later, 6 mL of 20% Dulbecco's Modified Eagle Medium (DMEM) was added to the plates and incubated at 37° C. in a 5% CO2 incubator. Approximately 72 hours after transfection, cells were subcultured at various dilutions with fresh medium containing 0.8 mg/mL Zeocin™ (Life Technologies). Cells were replenished with selective medium every 3-4 days until cell foci were identified in the FAK transfected cells and most of the cells died in the control plates. Cells from these foci were grown in the presence of selective media and the expression of FAK was confirmed by Western Blotting. Over expression of FAK in the stably-transfected cells was quantified in the cell-based ELISA assay described below by determining the signal window, with a signal window of 2 or above considered to be robust). The HEK-FAK stable cell line thus was maintained in 0.8 mg/mL Zeocin™ (Life Technologies) and used in cell-based ELISA to assess autophosphorylation of FAK.
(i) Materials • 1. Phospho-FAK (Y397)-Capture Antibody • 2. Phospho-FAK (Y397)-Detection Antibody • 3. Streptavidin-HRP • 4. Cells used for the assay-HEK over expressing human FL FAK protein
(ii) Solutions • PBS—137 mM NaCl, 2.7 mM KCl, 8.1 mM Na2HPO4, 1.5 mM KH2PO4, pH 7.2-7.4, 0.2 μm filtered. • Wash Buffer—0.05% Tween20™ in PBS, pH 7.2-7.4 • Block Buffer—1% BSA, 0.05% NaN3, in PBS, pH 7.2-7.4. • IC Diluent #1-1% BSA in PBS, pH 7.2-7.4, 0.2 μm filtered. • IC Diluent #8-1 mM EDTA, 0.5% Triton™ X-100, 5 mM NaF in PBS, pH 7.2-7.4. IC Diluent #8 was also the base buffer for IC Diluent #3, IC Diluent #7, and Lysis. • Buffer #6. […]

Chain of JAK2 (O60674 whole entry, species assumed): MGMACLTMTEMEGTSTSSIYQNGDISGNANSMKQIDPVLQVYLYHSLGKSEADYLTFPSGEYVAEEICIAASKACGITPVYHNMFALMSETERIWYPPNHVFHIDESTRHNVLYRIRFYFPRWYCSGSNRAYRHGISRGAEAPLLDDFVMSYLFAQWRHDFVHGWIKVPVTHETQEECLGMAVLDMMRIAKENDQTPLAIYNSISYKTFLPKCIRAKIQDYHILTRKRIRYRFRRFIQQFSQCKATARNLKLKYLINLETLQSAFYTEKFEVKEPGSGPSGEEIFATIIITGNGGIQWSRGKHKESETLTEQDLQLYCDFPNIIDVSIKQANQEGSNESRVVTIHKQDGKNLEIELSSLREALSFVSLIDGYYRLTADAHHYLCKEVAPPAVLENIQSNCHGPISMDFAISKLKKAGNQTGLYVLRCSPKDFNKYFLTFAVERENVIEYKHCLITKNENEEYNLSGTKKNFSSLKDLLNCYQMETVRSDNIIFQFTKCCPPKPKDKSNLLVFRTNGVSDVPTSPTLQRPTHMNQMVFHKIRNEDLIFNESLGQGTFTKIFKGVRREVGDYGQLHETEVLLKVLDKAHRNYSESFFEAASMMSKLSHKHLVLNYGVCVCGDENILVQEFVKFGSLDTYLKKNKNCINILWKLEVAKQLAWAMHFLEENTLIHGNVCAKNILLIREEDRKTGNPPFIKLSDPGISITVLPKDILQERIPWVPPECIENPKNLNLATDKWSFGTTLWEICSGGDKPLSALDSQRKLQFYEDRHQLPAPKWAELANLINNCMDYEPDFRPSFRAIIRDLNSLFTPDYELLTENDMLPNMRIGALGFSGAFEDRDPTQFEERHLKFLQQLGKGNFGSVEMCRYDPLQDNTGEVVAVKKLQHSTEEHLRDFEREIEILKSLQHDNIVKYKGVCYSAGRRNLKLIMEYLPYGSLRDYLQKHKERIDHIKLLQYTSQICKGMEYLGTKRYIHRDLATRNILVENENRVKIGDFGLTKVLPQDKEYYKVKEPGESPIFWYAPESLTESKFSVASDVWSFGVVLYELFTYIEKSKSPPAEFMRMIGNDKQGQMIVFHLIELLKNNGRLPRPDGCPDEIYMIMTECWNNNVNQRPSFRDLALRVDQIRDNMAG
T2 sequence (Q96GD4 whole entry): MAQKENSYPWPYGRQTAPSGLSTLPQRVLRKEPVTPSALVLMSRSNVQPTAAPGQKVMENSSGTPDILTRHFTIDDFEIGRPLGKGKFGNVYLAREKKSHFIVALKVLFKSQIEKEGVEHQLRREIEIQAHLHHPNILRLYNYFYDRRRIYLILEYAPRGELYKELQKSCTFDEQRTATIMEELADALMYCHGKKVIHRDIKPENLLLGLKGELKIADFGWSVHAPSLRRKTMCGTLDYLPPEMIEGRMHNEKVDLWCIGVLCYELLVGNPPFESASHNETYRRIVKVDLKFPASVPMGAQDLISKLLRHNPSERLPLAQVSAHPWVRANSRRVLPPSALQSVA
T1 sequence (Q05397 422-680 limits assumed): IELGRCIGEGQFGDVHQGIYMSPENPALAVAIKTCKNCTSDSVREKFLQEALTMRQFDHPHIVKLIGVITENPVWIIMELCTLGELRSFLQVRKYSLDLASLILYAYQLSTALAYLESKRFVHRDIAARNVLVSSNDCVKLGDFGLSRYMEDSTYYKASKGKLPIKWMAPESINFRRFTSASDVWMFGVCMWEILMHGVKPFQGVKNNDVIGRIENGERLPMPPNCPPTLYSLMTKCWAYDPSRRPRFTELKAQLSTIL
T4 sequence (Q05397 whole entry): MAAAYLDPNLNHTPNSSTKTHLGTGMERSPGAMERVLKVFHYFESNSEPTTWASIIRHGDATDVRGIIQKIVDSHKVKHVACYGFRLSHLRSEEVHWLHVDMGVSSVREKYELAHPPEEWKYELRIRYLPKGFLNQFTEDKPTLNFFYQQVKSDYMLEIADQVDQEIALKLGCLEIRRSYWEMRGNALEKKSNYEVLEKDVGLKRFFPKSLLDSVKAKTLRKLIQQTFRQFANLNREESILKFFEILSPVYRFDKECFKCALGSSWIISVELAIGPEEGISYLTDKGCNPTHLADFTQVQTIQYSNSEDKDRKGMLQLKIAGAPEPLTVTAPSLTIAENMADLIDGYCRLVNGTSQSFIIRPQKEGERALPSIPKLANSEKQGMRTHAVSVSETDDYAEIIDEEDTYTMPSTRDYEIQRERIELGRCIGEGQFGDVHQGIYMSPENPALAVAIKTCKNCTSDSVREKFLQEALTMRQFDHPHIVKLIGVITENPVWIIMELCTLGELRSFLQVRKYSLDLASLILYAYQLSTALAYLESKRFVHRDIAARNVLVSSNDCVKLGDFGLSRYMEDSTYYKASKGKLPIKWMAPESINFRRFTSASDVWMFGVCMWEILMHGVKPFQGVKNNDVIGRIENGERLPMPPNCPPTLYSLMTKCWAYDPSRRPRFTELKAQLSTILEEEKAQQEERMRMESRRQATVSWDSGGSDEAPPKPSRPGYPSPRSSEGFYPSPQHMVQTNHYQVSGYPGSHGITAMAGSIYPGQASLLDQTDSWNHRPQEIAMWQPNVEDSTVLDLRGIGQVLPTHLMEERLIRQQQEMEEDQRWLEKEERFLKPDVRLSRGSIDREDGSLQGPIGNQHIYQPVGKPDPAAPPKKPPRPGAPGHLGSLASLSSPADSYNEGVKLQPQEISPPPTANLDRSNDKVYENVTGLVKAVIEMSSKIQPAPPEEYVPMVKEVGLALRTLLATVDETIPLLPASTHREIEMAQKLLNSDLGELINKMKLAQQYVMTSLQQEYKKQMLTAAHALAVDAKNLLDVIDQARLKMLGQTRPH
T3 sequence (P12931 whole entry): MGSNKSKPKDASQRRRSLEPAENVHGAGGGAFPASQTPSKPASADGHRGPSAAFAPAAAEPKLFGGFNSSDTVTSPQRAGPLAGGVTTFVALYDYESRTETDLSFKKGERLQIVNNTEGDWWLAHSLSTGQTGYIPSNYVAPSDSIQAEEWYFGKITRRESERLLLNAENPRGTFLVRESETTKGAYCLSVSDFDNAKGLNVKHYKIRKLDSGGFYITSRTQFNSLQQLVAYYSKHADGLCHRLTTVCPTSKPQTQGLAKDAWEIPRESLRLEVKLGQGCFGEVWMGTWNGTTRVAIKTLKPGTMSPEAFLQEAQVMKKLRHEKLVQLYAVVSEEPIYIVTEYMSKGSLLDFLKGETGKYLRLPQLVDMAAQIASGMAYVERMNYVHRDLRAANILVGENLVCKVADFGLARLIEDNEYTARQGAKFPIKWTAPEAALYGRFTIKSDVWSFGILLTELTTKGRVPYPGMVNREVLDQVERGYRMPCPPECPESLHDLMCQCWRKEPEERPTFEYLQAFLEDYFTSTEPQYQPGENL

SMILES	IC50 (recombinant human FAK1)	IC50 (JAK2)	IC50 (AURKB (Aurora B) enzyme)	IC50 (Recombinant Src enzyme)	EC50 [1]
CC(=O)Nc1ccc(Nc2ncc3ccn(Cc4ccccc4OC(F)F)c3n2)cc1 [Example 95]	–	< 20 nM	–	–	–
CC(=O)Nc1ccc(Nc2ncc3ccn(Cc4cccnc4N(C)S(C)(=O)=O)c3n2)cc1 [Example 35]	–	< 20 nM	< 20 nM	–	–
O=S(=O)(c1cccc2cccnc12)n1ncc2cnc(Nc3ccc(N4CCNCC4)cc3)cc21 [Example 210]	–	> 1000 nM	< 20 nM	–	–
O=c1[nH]c2ccc(Nc3ncc4ccn(S(=O)(=O)c5ccccc5OC(F)F)c4n3)cc2[nH]1 [Example 180]	< 20 nM	< 20 nM	< 20 nM	–	–
CN(c1ncccc1Cn1ccc2cnc(Nc3ccc4ncsc4c3)nc21)S(C)(=O)=O [Example 123]	–	< 20 nM	< 20 nM	–	–
CN(c1ncccc1Cn1ccc2cnc(Nc3cccc(N4CCOCC4)c3)nc21)S(C)(=O)=O [Example 99]	–	< 20 nM	–	–	–
O=S(=O)(c1cccc2cccnc12)n1ccc2cnc(Nc3ccc(N4CCNCC4)cc3)nc21 [Example 193]	< 20 nM	< 20 nM	< 20 nM	–	–
COc1ccccc1S(=O)(=O)n1ccc2cnc(Nc3ccc4c(c3)CCC(=O)N4)nc21 [Example 106]	< 20 nM	< 20 nM	< 20 nM	–	–
CN(c1ncccc1Cn1ccc2cnc(Nc3cccc(S(N)(=O)=O)c3)nc21)S(C)(=O)=O [Example 165]	–	< 20 nM	< 20 nM	–	–
CN1CCN(c2ccc(Nc3ncc4ccn(Cc5cccnc5N(C)S(C)(=O)=O)c4n3)cc2)CC1 [Example 101]	–	< 20 nM	–	–	–
CN(C)CCOc1cccc(Nc2ncc3ccn(Cc4cccnc4N(C)S(C)(=O)=O)c3n2)c1 [Example 91]	–	< 20 nM	< 20 nM	–	–
CN(c1ccccc1Cn1ccc2cnc(Nc3ccc4c(c3)CCC(=O)N4)nc21)S(C)(=O)=O [Example 103]	< 20 nM	< 20 nM	–	–	–
CN(c1ncccc1Cn1ccc2cnc(Nc3ccc(N4CCNCC4)cc3)nc21)S(C)(=O)=O [Example 116]	–	< 20 nM	< 20 nM	–	–
CC(=O)Nc1cccc(Nc2ncc3ccn(Cc4ccccc4N(C)S(C)(=O)=O)c3n2)c1 [Example 100]	< 20 nM	< 20 nM	–	–	–
O=S(=O)(c1ccccc1Cl)n1ccc2cnc(Nc3ccc(N4CCNCC4)cc3)nc21 [Example 232]	–	–	< 20 nM	< 20 nM	> 1 µM
CN(C)c1ccc(Nc2ncc3ccn(Cc4cccnc4N(C)S(C)(=O)=O)c3n2)cc1 [Example 105]	–	< 20 nM	< 20 nM	–	–

Continued, values first:

IC50 (recombinant human FAK1)	IC50 (JAK2)	IC50 (AURKB (Aurora B) enzyme)	IC50 (Recombinant Src enzyme)	EC50 [1]	SMILES
< 20 nM	> 1000 nM	< 20 nM	–	–	COc1cc(Nc2cc3c(ccn3S(=O)(=O)c3ccccc3C#N)cn2)ccc1N1CCNCC1 [Example 391]
–	–	< 20 nM	> 1000 nM	> 1 µM	Cc1ccc2cccc(S(=O)(=O)n3ccc4cnc(Nc5ccc(N6CCNCC6)cc5)cc43)c2n1 [Example 369]
< 20 nM	< 20 nM	< 20 nM	–	–	N#Cc1ccccc1S(=O)(=O)n1cc(F)c2cnc(Nc3ccc(N4CCNCC4)cc3)nc21 [Example 319]
–	–	< 20 nM	> 1000 nM	> 1 µM	COc1ccccc1S(=O)(=O)n1ncc2cnc(Nc3ccc(N4CCNCC4)cc3)cc21 [Example 342]
< 20 nM	< 20 nM	< 20 nM	–	–	O=S(=O)(c1cccc2cccnc12)n1ccc2cnc(Nc3ccc(CN4CCNCC4)cc3)nc21 [Example 244]
–	< 20 nM	< 20 nM	–	–	O=S(=O)(c1cccc2cnccc12)n1ccc2cnc(Nc3ccc(N4CCNCC4)cc3)nc21 [Example 235]
–	–	< 20 nM	> 1000 nM	> 1 µM	Cc1ccnc2c(S(=O)(=O)n3ccc4cnc(Nc5ccc(N6CCNCC6)cc5)nc43)cccc12 [Example 398]
–	–	< 20 nM	< 20 nM	> 1 µM	C[C@@H]1CN(c2ccc(Nc3ncc4ccn(Cc5ccccc5NS(C)(=O)=O)c4n3)cc2)CCN1 [Example 547]
< 20 nM	> 1000 nM	–	–	–	CN(C)C1CCN(c2ccc(Nc3ncc4c(n3)N(S(=O)(=O)c3cccc5cccnc35)CC4(C)C)cc2)CC1 [Example 500]
< 20 nM	–	–	> 1000 nM	> 1 µM	N#Cc1ccccc1S(=O)(=O)n1ccc2cnc(Nc3ccc4c(c3)CC(=O)N4)cc21 [Example 514]
< 20 nM	–	–	> 1000 nM	< 0.02 µM	COc1cc(N2CCN(CCOC(C)=O)CC2)ccc1Nc1cc2c(ccn2S(=O)(=O)c2cccc3cccnc23)cn1 [Example 451]
< 20 nM	–	–	> 1000 nM	< 0.02 µM	COCCN1CCN(c2ccc(Nc3cc4c(ccn4S(=O)(=O)c4cccc5cccnc45)cn3)c(OC)c2)CC1 [Example 444]
–	< 20 nM	–	–	–	C[C@H]1CN(c2ccc(Nc3ncc4ccn(Cc5cccnc5N(C)S(C)(=O)=O)c4n3)cc2)CCN1 [Example 471, N-Methyl-N-(3-{2-[4-((S)-3-methyl-piperazin-1-yl)-phenylamino]-pyrrolo[2,3-d]pyrimidin-7-ylmethyl}-pyridin-2-yl)-methanesulfonamide]
< 20 nM	–	–	> 1000 nM	< 0.02 µM	COc1cc(N2CCC(O)CC2)ccc1Nc1cc2c(ccn2S(=O)(=O)c2cccc3cccnc23)cn1 [Example 400]
–	< 20 nM	< 20 nM	–	–	C[C@@H]1CN(c2ccc(Nc3ncc4ccn(Cc5cccnc5N(C)S(C)(=O)=O)c4n3)cc2)CCN1 [Example 475]
–	–	< 20 nM	< 20 nM	> 1 µM	N#Cc1ccccc1S(=O)(=O)n1ccc2cnc(Nc3ccc(N4CCNCC4)c(F)c3)nc21 [Example 245]
< 20 nM	–	–	> 1000 nM	< 0.02 µM	COc1cc(N2CCN(CCO)CC2)ccc1Nc1cc2c(ccn2S(=O)(=O)c2cccc3cccnc23)cn1 [Example 386]
–	–	> 1000 nM	> 1000 nM	> 1 µM	CC1(C)CN(c2ccccn2)c2nc(Nc3ccc4c(c3)CC(=O)N4)ncc21 [Example 740]
–	< 20 nM	< 20 nM	–	–	C[C@H]1CNCCN1c1ccc(Nc2ncc3ccn(Cc4ccccc4N(C)S(C)(=O)=O)c3n2)cc1 [Example 481]
< 20 nM	–	–	> 1000 nM	< 0.02 µM	COc1cc(N2CCN(CCO)CC2)ccc1Nc1cc2c(cn1)cnn2S(=O)(=O)c1cccc2cccnc12 [Example 387]
